# Literature values in patent publication EP2103943A1, “GDF-15 for assessing a cardiovascular risk with respect to the administration of antiinflammatory drugs” (F. Hoffmann-La Roche AG, priority 2008, dated 2009).
smiles,measurement,setting,value
CS(=O)(=O)c1ccc(C2=C(c3ccccc3)C(=O)OC2)cc1 [Rofecoxib],"additional cardiovascular incidents (myocardial infarction, stroke)","25 mg rofecoxib compared with a placebo, after 18 months of follow-up","16 per 1,000 treated patients"
same,blood pressure levels,"25 mg rofecoxib compared with a placebo, early post-observation phase",higher blood pressure levels
same,rise in the rate of serious thromboembolic incidents,"APPROVE study, patients without any recognisable cardiovascular risk, led to premature discontinuation",3.9 times
